From the supplement of paper PMC8633005

What was measured:
Assay in all cases: drug sensitivity score (DSS) (DSS (unitless, 0-50 scale)); higher = more sensitive (stronger viability inhibition); extreme values may be limits of the assay
Conditions in all cases: 72 h; culture: 2D
[1] = tested on: FM-MEL-2
Outline: (§1)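 Melanoma cell lines and patient-derived melanoma cultures at 1000–1500 cells per well were exposed in 2D, in 384-well plates, to a 527-compound oncology library at five concentrations spanning a 10,000-fold range for 72 h at 37 °C. CellTiter-Glo luminescence then measured viability. From dose-response curves fitted in the in-house Breeze software, a drug sensitivity score, a modified area-under-curve measure, was obtained.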

[2] = tested on: SK-MEL-2
Outline: as §1

[3] = tested on: WM852
Outline: as §1

[4] = tested on: WM165
Outline: as §1

[5] = tested on: FM-MEL-6
Outline: as §1

[6] = tested on: SK-MEL-28
Outline: as §1

[7] = tested on: FM-MEL-3
Outline: as §1

[8] = tested on: Bowes
Outline: as §1

Structure (SMILES) | drug sensitivity score [1] | drug sensitivity score [2] | drug sensitivity score [3] | drug sensitivity score [4] | drug sensitivity score [5] | drug sensitivity score [6] | drug sensitivity score [7] | drug sensitivity score [8]
N#CCNC(=O)c1ccc(-c2ccnc(Nc3ccc(N4CCOCC4)cc3)n2)cc1 [Momelotinib] | 3.7 | 0.2 | 1.9 | 7.2 | 1.1 | 3.7 | 1.2 | 4.1
Cc1nc2cccc(N)c2c(=O)n1C1CCC(=O)NC1=O (centres undefined) [CC122] | 0 | 0 | 0 | 0 | 1.3 | 0 | 0.2 | 0
O=C(/C=C\n1cnc(-c2cc(C(F)(F)F)cc(C(F)(F)F)c2)n1)NNc1ccccn1 [Verdinexor] | 4.2 | 2.3 | 2 | 9.3 | 4 | 5 | 5.3 | 4.1
CC1CCC(n2c3cnccc3c3cnc(Nc4ccc5c(n4)CCN(C(=O)CO)C5)nc32)CC1 (centres undefined) [AMG-925] | 0.7 | 0 | 1.8 | 0 | 0.7 | 0 | 0 | 0
C=CCN(/C=C1/C(=O)O[C@H](COC)[C@@]2(C)C1=C(O)C(=O)C1=C2[C@H](OC(C)=O)C[C@]2(C)C(=O)CC[C@@H]12)CC=C [Sonolisib] | 0 | 0 | 0 | 0 | 0 | 0 | 0 | 0
C[C@]1(O)C[C@@H](c2nc(-c3ccc4ccc(-c5ccccc5)nc4c3)c3c(N)nccn32)C1 [Linsitinib] | 3.6 | 0 | 1 | 1.3 | 0.9 | 0 | 4.8 | 0
CCOCc1nc2c(N)nc3ccccc3c2n1CC(C)(C)O [Resiquimod] | 0 | 0 | 0.4 | 0 | 0.2 | 0 | 0 | 0.1
O=c1[nH]c(=O)n([C@H]2C[C@H](O)[C@@H](CO)O2)cc1F [Floxuridine] | 0.4 | 0 | 4.9 | 18.4 | 1.2 | 8 | 0 | 15.7
NC(=O)Nc1cc(-c2cccc(F)c2)sc1C(=O)N[C@H]1CCCNC1 [AZD7762] | 0.2 | 4.2 | 8.4 | 4.7 | 6.5 | 2.2 | 6.1 | 7.7
C[C@@H]1CN(CC(=O)Nc2ccc3c(c2)Cc2cccc(-c4cc(=O)cc(N5CCOCC5)o4)c2S3)C[C@H](C)O1 | 1.5 | 0 | 2.6 | 1.1 | 1 | 3.4 | 1.2 | 2.5
Cc1cc(Nc2ncc(Cl)c(Nc3ccccc3S(=O)(=O)C(C)C)n2)c(OC(C)C)cc1C1CCNCC1 [Ceritinib] | 4.3 | 0 | 1 | 4.5 | 2.6 | 1.5 | 4.3 | 0.3
CCOc1cc2ncc(C#N)c(Nc3ccc(OCc4ccccn4)c(Cl)c3)c2cc1NC(=O)/C=C/CN(C)C [Neratinib] | 1 | 0.2 | 0.5 | 4.9 | 0.3 | 0 | 3.2 | 3.2
Cc1cc([C@@H](C)Nc2ccccc2C(=O)O)c2nc(N3CCOCC3)cc(=O)n2c1 [AZD-6482] | 1.9 | 0 | 0.4 | 0.5 | 1.4 | 3.3 | 1.7 | 1.2
O=c1[nH]c(C2CCCN2)nc2c1oc1ccc(Cl)cc12 (centres undefined) | 0.5 | 0 | 0 | 0.7 | 0 | 0 | 0 | 0
CO[C@@H](C)Cn1c(=O)n(C)c2cnc3ccc(-c4cncc(C(C)(C)O)c4)cc3c21 | 9.6 | 7.3 | 7.5 | 12 | 9.3 | 7.9 | 8.9 | 10.4
Cc1ccc(F)c(NC(=O)Nc2ccc(-c3cccc4[nH]nc(N)c34)cc2)c1 [Linifanib] | 0.1 | 0 | 0 | 0 | 0 | 0 | 0 | 2.2
CCC1=C[C@@H]2CN(C1)Cc1c([nH]c3ccccc13)[C@@](C(=O)OC)(c1cc3c(cc1OC)N(C)[C@H]1[C@@](O)(C(=O)OC)[C@H](OC(C)=O)[C@]4(CC)C=CCN5CC[C@]31[C@@H]54)C2 [Vinorelbine] | 7.7 | 25.6 | 23.1 | 28.8 | 23.3 | 11 | 12.5 | 31.6
C[C@@H]1C=C2C(=O)O[C@@H]3CC[C@H](C1)[C@]23O [Galiellalactone] | 2.9 | 0 | 5.1 | 6.9 | 0.7 | 5.8 | 5.2 | 8.4
CN(C)C(=O)c1cc2cnc(Nc3ccc(N4CCNCC4)cn3)nc2n1C1CCCC1 [Ribociclib] | 4.3 | 0 | 0.7 | 2.8 | 1.6 | 5.4 | 2.3 | 0
Cc1cc(-c2nc(-c3ccc(OC(F)(F)F)cc3)no2)nn1Cc1ccnc(N2CCN(C3CC3)CC2)c1 [BAY 87-2243] | 0.2 | 0 | 25.9 | 5.5 | 0 | 1.6 | 6.6 | 12.3
CC(C)C[C@H](NC(=O)CNC(=O)c1cc(Cl)ccc1Cl)B(O)O [Ixazomib] | 4.9 | 11.2 | 0.9 | 10.4 | 17 | 9.6 | 13.6 | 8.8
Cn1nnc2c(C(N)=O)ncn2c1=O [Temozolomide] | 0 | 0 | 0 | 0 | 0 | 0 | 0 | 0

Structure (SMILES) | drug sensitivity score [1] | drug sensitivity score [2] | drug sensitivity score [3] | drug sensitivity score [4] | drug sensitivity score [5] | drug sensitivity score [6] | drug sensitivity score [7] | drug sensitivity score [8]
Nc1nc2cc(-c3ccc4ncc(C(=O)N5CCOCC5)n4c3)ccc2o1 [Serabelisib] | 0.5 | 0 | 0 | 0.1 | 0 | 0 | 0.3 | 0
C[C@H]1CNCCCN1S(=O)(=O)c1cccc2cncc(F)c12 [Ripasudil] | 0 | 0 | 0 | 0.1 | 0 | 0 | 0 | 0
O=C(c1cc(Cc2n[nH]c(=O)c3ccccc23)ccc1F)N1CCN(C(=O)C2CC2)CC1 [Olaparib] | 0 | 0 | 3.9 | 7.5 | 0 | 1 | 0 | 0.4
C[C@@H]1C[C@H]2[C@@H]3CCC4=CC(=O)C=C[C@]4(C)[C@@]3(F)[C@@H](O)C[C@]2(C)[C@@]1(O)C(=O)CO [Dexamethasone] | 0 | 0 | 0 | 0 | 0 | 0 | 0 | 0
Nc1cccc2c1C(=O)N(C1CCC(=O)NC1=O)C2=O (centres undefined) [Pomalidomide] | 0 | 0 | 0 | 0 | 0 | 0 | 0 | 0
CCS(=O)(=O)N1CCN(c2ccc(Nc3ncc(C(N)=O)c(NC4CC4)n3)cc2)CC1 [Cerdulatinib] | 0 | 0 | 4 | 4.6 | 0.1 | 0 | 0 | 0.8
Cn1cc(CNCC2CCN(c3ncc(C(=O)NO)cn3)CC2)c2ccccc21 [Quisinostat] | 13.4 | 13.5 | 5.7 | 16.3 | 10.6 | 10.7 | 11.3 | 9
COc1cccc2c1C(=O)c1c(O)c3c(c(O)c1C2=O)C[C@@](O)(C(=O)CO)C[C@@H]3O[C@H]1C[C@H](N)[C@@H](O)[C@H](C)O1 [Epirubicin] | 6 | 5.3 | 4.6 | 14.3 | 8.6 | 7.4 | 7.6 | 4
CC[C@@H]1C(=O)N(C)c2cnc(Nc3ccc(C(=O)N[C@H]4CC[C@H](N5CCN(CC6CC6)CC5)CC4)cc3OC)nc2N1C(C)C [Volasertib] | 2.6 | 8.1 | 14.9 | 13.3 | 3.7 | 3.1 | 6.5 | 17.5
CNC(=O)c1cccc2cc(Oc3ccnc4cc(OCC5(N)CC5)c(OC)cc34)ccc12 [Lucitanib] | 0.3 | 0 | 2.2 | 1.6 | 1.3 | 0 | 0 | 5.4
CCn1c(=O)c(-c2ccc(Cl)cc2Cl)cc2cnc(Nc3ccc(N4CCNCC4)c(F)c3)nc21 [FRAX486] | 0 | 0.5 | 1.4 | 7.6 | 1.9 | 3.2 | 0 | 9.7
COc1cc2nccc(Oc3ccc(NC(=O)NC4CC4)c(Cl)c3)c2cc1C(N)=O [Lenvatinib] | 0 | 0 | 0 | 0 | 0 | 0 | 0 | 1.3
O=C(Nc1cnn2ccc(N3CCC[C@@H]3c3cc(F)ccc3F)nc12)N1CC[C@H](O)C1 [Larotrectinib] | 0 | 0 | 0 | 0 | 0 | 0 | 0 | 0
Nc1ncn([C@H]2C[C@H](O)[C@@H](CO)O2)c(=O)n1 [Decitabine] | 0 | 0 | 0 | 0.7 | 3.4 | 0 | 0 | 0
O=C(NC1CCNCC1)c1n[nH]cc1NC(=O)c1c(Cl)cccc1Cl [AT7519] | 7.7 | 15.1 | 15.3 | 20 | 19.3 | 10.5 | 12.8 | 21.4
CC(C)C(=O)Nc1ccc([N+](=O)[O-])c(C(F)(F)F)c1 [Flutamide] | 0 | 0 | 0.5 | 0 | 0 | 0 | 0.5 | 0.1
N#Cc1ccc2[nH]c(O)c(-c3ccc(CN4CCOCC4)cn3)c2c1 [AZD-1080] | 0 | 0 | 0.6 | 2.2 | 0 | 0 | 0 | 0
CC(=O)N(O)CCCCCNC(=O)CCC(=O)N(O)CCCCCNC(=O)CCC(=O)N(O)CCCCCN [Deferoxamine] | 0.6 | 0 | 4.9 | 3.8 | 1.8 | 0.9 | 0 | 2.9
Cc1cccc(-c2nn3c(c2-c2ccnc4ccc(C(N)=O)cc24)CCC3)n1 [Galunisertib] | 0 | 0 | 0 | 0 | 0 | 0 | 0 | 0
CCc1c2c(nc3ccc(O)cc13)-c1cc3c(c(=O)n1C2)COC(=O)[C@]3(O)CC [SN-38] | 11.8 | 17.3 | 8 | 42.7 | 19.7 | 17 | 24.6 | 19.7
C[C@H]1C[C@@H]2[C@H]([C@@H](O)C[C@@]3(C)[C@H]2CC[C@]3(O)C(=O)CO)[C@@]2(C)C=CC(=O)C=C12 [Methylprednisolone] | 0 | 0 | 0 | 0 | 0 | 0.4 | 1.2 | 1
